Values joined by “and” are separate entries in the source; they are usually repeats but may differ in a detail not shown here. Identical values can stand only once. Counter-ions that a name gives are not always drawn. Like-named read-outs stand apart in the source and are kept apart here.
Legend:
Assay type in all cases: physicochemical
[1] = Dynamic vapor sorption (DVS) hygroscopicity
Experimental: DVS was measured via a SMS (Surface Measurement System) DVS Intrinsic. Parameters for DVS data collection were as follows:
A second endotherm (having an onset at 121.5° C.) associated with melting of the dehydrated phase (ΔH: 15.20 J/g) was followed by a rapid decomposition as temperature continued to increase (FIG. 3). Because of the low onset of dehydration, the DVS was measured at both room temperature and at 40° C. to predict the stability of the crystalline phase at 40° C. […] A 1.5% weight loss was observed between 95% and 20% RH, and a 2.9% weight loss was observed between 20% and 0% RH, for a total loss of […] across the entire cycle. […] After measuring the hygroscopicity by DVS, an XRPD pattern was collected for comparison to the original material and found to correspond well to the pattern of the room temperature sample post-DVS temperature cycle (FIG. 6).

[2] = True density by helium pycnometry
Experimental: The equipment used was a Micromeritics AccuPyc II 1340, and the test parameters are set forth below. Testing was performed in duplicate (assuming target <2% variability achieved).
The true density of the material was determined by Helium Pycnometry.
The equipment used in this study was a Micromeritics AccuPyc II 1340, and the test parameters are the same as described in Example 10. The testing was performed in duplicate (assuming target <2% variability achieved).

[3] = Compaction characterization by Heckel analysis (yield pressure, strain rate sensitivity, crushing strength); details: for Yield pressure Fast (300 mm/s) / Yield pressure Slow (0.1 mm/s): summary of runs (± spread); for Strain rate sensitivity: yield pressure at 300 mm/s compared to 0.1 mm/s
Experimental: The aim of the Heckel test is to compress the material under controlled conditions to derive the yield pressure of the bulk material. A known weight of material is compressed within a 10 mm diameter die with flat faced punches moving at a set speed. The force on the punch is accurately measured at frequent intervals whilst the displacement of the punches is used to calculate the volume of the powder. The yield pressure is calculated at slow and fast punch speeds to assess the time-dependent component to deformation of the material.
A known weight of pure drug is compacted to theoretical zero porosity using 10 mm diameter flat faced punches. The Compaction Simulator was used under the following conditions:
During compression the location of the punch tips are accurately determined, and the force measured by load cells producing a record of the primary compression parameters. Temperature and humidity were monitored at intervals during the test.
The data were analyzed by the Compaction Analysis software program to generate values for yield pressure (Py) using the Heckel equation:
where • D=the relative density of the compact; • P=Pressure applied; and • K=Gradient of the line in the linear region; [Reference: R. W. Heckel. Trans. Metall. Soc. AIME 221 (1961)1001-1008].
For some materials, the deformation characteristics change with rate of applied force. This can be estimated by calculating the Strain Rate Sensitivity. The yield pressure at high speed compression is compared to that at slow speed using the following equation: […]

[4] = Tablet chemical stability: C17 epimer generation on storage at 40° C./75% RH; details: tablet dosage form, sealed bottle, 1 or 2 months, compared with mono-citrate salt
Experimental: FIG. 12 is a graph comparing the amount of the C17 epimer, a degradation product of Compound 1, over time for a tablet formulation containing Compound 1 hemi-citrate salt (Form I; left column in both “1 month” and “2 months”) or Compound 1 mono-citrate salt (Form A; right column in both “1 month” and “2 months”) in sealed bottles stored at 40° C./75% RH).

[5] = Tablet dissolution: percent release of Compound 1 from acidified tablet formulation
Experimental: FIG. 13 is a graph showing percent release of Compound 1 over time for an acidified tablet formulation containing Compound 1 hemi-citrate salt Form I. Tablets were used initially or maintained at 40° C./75% RH for 2 weeks, 1 month, or 2 months.
FIG. 14 is a graph showing percent release of Compound 1 over time for an acidified tablet formulation containing Compound 1 mono-citrate salt (Form A). Tablets were used initially or stored at 40° C./75% RH for 2 weeks, 1 month, or 2 months.

[6] = Gelation experiments in aqueous media; details: for concentration at which rapidly gelled: 0.1 N HCl media; for gelation in water or pH 7.4 buffer: 0.5-10 mg/mL
Experimental: To confirm these findings, controlled experiments were conducted where the free base, mono-citrate, and hemi-citrate salts of Compound 1 were dissolved in aqueous media at concentrations between 0.5 mg/mL and 10 mg/mL. The dissolution experiments were performed in either 0.1 N HCl, water, or pH 7.4 buffer as aqueous media.

[7] = fast speed 300 mm/s, individual runs, 21.7° C./38.9% RH
[8] = slow speed 0.1 mm/s, individual runs, 21.6° C./37.1% RH

For `COC[C@@]1(O)CC[C@@]2(C)[C@@H](CC[C@@H]3[C@@H]2CC[C@]2(C)[C@@H](C(=O)Cn4ccnc4)CC[C@@H]32)C1` [Compound 1 hemi-citrate salt Form I], the “total loss (DVS)” value ([1]; 40° C.) was 5.4%, the “water absorption from 20% to 80% RH (DVS)” value ([1]; 40° C.) was 1.8% and the “water lost between 95% and 20% RH (DVS)” value ([1]; 40° C.) was 2.2%. For the same compound, the “water lost from 20% to 0% RH (DVS)” value ([1]; 40° C.) was 3.2%, the hygroscopicity ([1]; DVS at room temperature and 40° C.) was “slightly hygroscopic” and the “total loss across the entire cycle (DVS)” value ([1]; room temperature) was 4.3%. The “water uptake between 20% and 80% RH (DVS)” value ([1]; room temperature) was 1.2%, the “weight loss between 20% and 0% RH (DVS)” value ([1]; room temperature) was 2.9% and the “weight loss between 95% and 20% RH (DVS)” value ([1]; room temperature) was 1.5%. The true density mean [2] was 1.2621 g/mL, the Compact observations [3] was “Ok and Chipped and Capped” and the “Ejection Force” value [3] was 0.416 kN and 0.445 kN and 0.479 kN and 0.747 kN and 0.736 kN and 0.745 kN. The “Peak Force of Upper punch” value [3] was 20.607 kN and 21.683 kN and 19.936 kN and 14.028 kN and 13.909 kN and 14.571 kN, the “Yield Pressure” value [3] was 67.480 MPa and 73.595 MPa and 67.397 MPa and 83.127 MPa and 80.626 MPa and 89.401 MPa and the “Yield pressure Fast (300 mm/s)” value ([3]; fast speed 300 mm/s) was 84.38 MPa (±4.52). The “Yield pressure Slow (0.1 mm/s)” value ([3]; slow speed 0.1 mm/s) was 69.49 MPa (±3.55) and the Strain rate sensitivity [3] was 21.4%.

In the case of `COC[C@@]1(O)CC[C@@]2(C)[C@@H](CC[C@@H]3[C@@H]2CC[C@]2(C)[C@@H](C(=O)Cn4ccnc4)CC[C@@H]32)C1` [Compound 1 hemi-citrate salt], the “degradation product (C17-epimer) generated” value [4] is reported as “less degradation product”, the “susceptibility to dissolution slow-down of the tablet” value ([5]; compared with Compound 1 mono-citrate salt) is reported as “less susceptible” and the “release of Compound 1 from an acidified formulation over time” value ([5]; initial and tablet stored in open dish at 40° C./75% RH for 2 weeks, 1 month, 2 months, compared with mono-citrate salt) is reported as “greater”. The “gelation in aqueous media” value ([6]; 0.1 N HCl, water, or pH 7.4 buffer, concentrations up to 10 mg/mL) was “did not gel”.

For `COC[C@@]1(O)CC[C@@]2(C)[C@@H](CC[C@@H]3[C@@H]2CC[C@]2(C)[C@@H](C(=O)Cn4ccnc4)CC[C@@H]32)C1.O=C(O)CC(O)(CC(=O)O)C(=O)O` [Compound 1 mono-citrate salt Form A], the true density mean [2] was 1.2666 g/mL, the Compact observations [3, 7] was “Laminated” and the Compact strength [3, 7] was 9.75 Kiloponds and 12.38 Kiloponds and 5.09 Kiloponds. For the same compound, the “Ejection Force” value [3, 7] was 0.740 kN and 0.649 kN and 0.719 kN, the “Peak Force of Upper punch” value [3, 7] was 14.137 kN and 14.545 kN and 14.488 kN and the “Yield Pressure” value [3, 7] was 105.169 MPa and 111.204 MPa and 110.483 MPa. For the same compound, the Compact observations [3, 8] was “Ok”, the Compact strength [3, 8] was 15.99 Kiloponds and 17.94 Kiloponds and 15.97 Kiloponds and 16.04 Kiloponds and the “Ejection Force” value [3, 8] was 0.603 kN and 0.426 kN and 0.518 kN and 0.462 kN. The “Peak Force of Upper punch” value [3, 8] was 18.227 kN and 22.470 kN and 20.499 kN and 22.020 kN, the “Yield Pressure” value [3, 8] was 70.114 MPa and 92.323 MPa and 85.677 MPa and 90.406 MPa and the “Yield pressure Fast (300 mm/s)” value ([3]; fast speed 300 mm/s) was 108.95 MPa (±3.30). The “Yield pressure Slow (0.1 mm/s)” value ([3]; slow speed 0.1 mm/s) was 84.63 MPa (±10.07) and the Strain rate sensitivity [3] was 28.7%.

For `COC[C@@]1(O)CC[C@@]2(C)[C@@H](CC[C@@H]3[C@@H]2CC[C@]2(C)[C@@H](C(=O)Cn4ccnc4)CC[C@@H]32)C1.O=C(O)CC(O)(CC(=O)O)C(=O)O` [Compound 1 mono-citrate salt], the “concentration at which rapidly gelled” value [6] was 5000 µg/mL and the “gelation in water or pH 7.4 buffer” value [6] was “did not gel”.

For `COC[C@@]1(O)CC[C@@]2(C)[C@@H](CC[C@@H]3[C@@H]2CC[C@]2(C)[C@@H](C(=O)Cn4ccnc4)CC[C@@H]32)C1` [Compound 1, 3α-hydroxy-3β-methoxymethyl-21-(1′-imidazolyl)-5α-pregnan-20-one], the “concentration at which rapidly gelled” value [6] was 1000 µg/mL and the “gelation in water or pH 7.4 buffer” value [6] was “did not gel”.

Source: patent US20240190910A1, “HEMI-CITRATE SALTS OF GABA-A POSITIVE […] AND CRYSTALLINE FORM THEREOF” (priority 2021, published 2024)
